pKi: −log10 of the molar value. *1 amine or outer side, *2 acyl side, *3 side chain or, on linkers, in order; H or OH if unused. Where a SMILES comes first, the peptide text is derived from it. Bridges are numbered along the chain shown (N, C = ends). [ ]: non-standard residue; d: D form. αMeAla(3-pyridyl) = C[C@](N)(Cc1cccnc1)C(=O)O; Phe(3,4-Me2) = Cc1ccc(C[C@H](N)C(=O)O)cc1C; Phe(4-NH2) = Nc1ccc(C[C@H](N)C(=O)O)cc1; 2Nal = N[C@@H](Cc1ccc2ccccc2c1)C(=O)O; AEF = NCCOc1ccc(C[C@H](N)C(=O)O)cc1; X1 = O=C(Cc1ccc(CN[*:1])cc1)[*:2]; αMeL = CC(C)C[C@](C)(N)C(=O)O; CH2COCH2 = O=C(C[*:1])C[*:2]; αMeV = CC(C)[C@](C)(N)C(=O)O; 3Amb = NCc1cccc(C(=O)O)c1; Dab = NCC[C@H](N)C(=O)O
Tests used:
human IL-23R = molecular target: T1, human IL-23R (Homo sapiens, UniProt Q5VWK5); assay: Binding assay (NanoBRET displacement of fluorophore-labelled reference compound) for estimating binding affinity to human IL-23R; conditions: Table 3-1; read-out: Ki hIL-23R
T1 construct: UniProtKB—Q5VWK5, amino acids 22-629; secretion signal of the plasmid (Promega N1371); expressed in transfected cells
T1 sequence (Q5VWK5 22-629): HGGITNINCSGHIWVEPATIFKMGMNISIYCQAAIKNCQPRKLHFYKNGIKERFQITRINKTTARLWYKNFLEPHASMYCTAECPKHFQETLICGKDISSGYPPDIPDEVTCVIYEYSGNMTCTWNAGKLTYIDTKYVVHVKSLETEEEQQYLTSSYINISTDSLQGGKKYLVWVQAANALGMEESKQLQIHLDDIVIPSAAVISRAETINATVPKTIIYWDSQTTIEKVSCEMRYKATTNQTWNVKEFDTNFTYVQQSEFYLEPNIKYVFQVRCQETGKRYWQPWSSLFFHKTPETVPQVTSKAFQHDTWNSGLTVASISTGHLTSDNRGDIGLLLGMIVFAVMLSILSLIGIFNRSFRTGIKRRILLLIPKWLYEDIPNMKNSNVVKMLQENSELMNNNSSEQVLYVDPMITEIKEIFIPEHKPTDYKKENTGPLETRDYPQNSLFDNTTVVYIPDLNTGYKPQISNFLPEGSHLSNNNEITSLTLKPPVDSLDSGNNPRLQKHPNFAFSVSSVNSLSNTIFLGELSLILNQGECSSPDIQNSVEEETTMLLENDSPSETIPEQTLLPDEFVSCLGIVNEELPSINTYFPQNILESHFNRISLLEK

[1] = Peptide stability in simulated gastric fluid (SGF); format: in vitro ADME; conditions: pig, simulated gastric fluid (SGF) with porcine pepsin, Table 3-3, porcine pepsin, pH 1.2, 37° C., 10 μM; for remaining at 1 h, 10 μM: read-out: SGF (% remaining 1 h); for remaining at 4 h, 10 μM: read-out: SGF (% remaining 4 h)
Description: Determination of Peptide Stability in Simulated Gastric Fluid (SGF) and Simulated Intestinal Fluid (SIF)
SGF was prepared by dissolving sodium chloride (0.2 g) in 50 mL of water. A volume of 0.7 mL of 10 M HCl was added to adjust the pH of the solution to 1.2 and the volume made up to 100 mL with water. […] SIF was prepared by dissolving monobasic potassium phosphate (0.68 g) in 50 mL of water and adjusting the pH to 6.8 with 1 M NaOH. The volume was subsequently made up to 100 mL with water. 200 mg porcine pancreatin (P1625, Sigma Aldrich) was gently dissolved into 20 mL preheated (37° C.) solution (10 g/L) immediately prior to the incubation.
The incubation was performed at 37° C. with gentle shaking. […] After the last timepoint, the sampling plate was mixed for 10 min on a shaking table and centrifuged 10 min at 2200 g. 70 μL resulting supernatant was diluted with 150 μL water, mixed and centrifugated before analysis by liquid chromatography high resolution mass spectrometry. […] Percent remaining at each timepoint was calculated relative to timepoint zero based on absolute peak areas.

[2] = Peptide stability in simulated intestinal fluid (SIF); format: in vitro ADME; conditions: pig, simulated intestinal fluid (SIF) with porcine pancreatin, Table 3-2, porcine pancreatin, pH 6.8, 37° C., 10 μM; for remaining at 1 h, 10 μM: read-out: SIF (% remaining 1 h); for remaining at 4 h, 10 μM: read-out: SIF (% remaining 4 h)
Method in brief: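 Peptides incubated at 37°C with gentle shaking in SGF (NaCl, HCl, pH 1.2) or SIF (phosphate pH 6.8 with 10 g/L porcine pancreatin). Samples analysed by LC-HRMS; percent remaining at each timepoint calculated from absolute peak areas relative to time zero.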

| Structure (SMILES) | pKi (human IL-23R) | remaining at 1 h, 10 μM [1] [%] | remaining at 1 h, 10 μM [2] [%] | remaining at 4 h, 10 μM [2] [%] | remaining at 4 h, 10 μM [1] [%] |
| --- | --- | --- | --- | --- | --- |
| CC(C)C[C@@H]1NC(=O)[C@H](Cc2ccc3ccccc3c2)NC(=O)[C@H](Cc2ccc(OCCN)cc2)NC(=O)[C@@H]2CSCC(=O)CSC[C@H](NC(=O)[C@H](CO)NC(=O)c3cccc(c3)CNC(=O)CC[C@@H](C(=O)N[C@@H](CCCNC(=N)N)C(N)=O)NC1=O)C(=O)N[C@@H](Cc1c[nH]c3ccccc13)C(=O)N[C@@H](CCC(N)=O)C(=O)N2 [Compound 39, [(3-Aminomethyl)benzoyl](1c)*SC(2a)WQC(2a)[Y(2-aminoethoxy)][2-Nal]LE(1c)R-[NH2]] ([3Amb]SCWQC[AEF][2Nal]LER-NH2; linker 3-6 via CH2COCH2; lactam N-10) | 8.85 | 90 | 0 | 0 | – |
| CC(C)C[C@H]1NC(=O)[C@H](Cc2ccc3ccccc3c2)NC(=O)[C@H](Cc2ccc(OCCN)cc2)NC(=O)[C@@H]2CSCC(=O)CSC[C@H](NC(=O)[C@H](CO)NC(=O)c3cccc(c3)CNC(=O)CC[C@@H](C(=O)N[C@@H](Cc3ccc(O)cc3)C(N)=O)NC1=O)C(=O)N[C@@H](Cc1c[nH]c3ccccc13)C(=O)N[C@@H](CCC(N)=O)C(=O)N2 [Compound 46, [(3-Aminomethyl)benzoyl](1c)*SC(2a)WQC(2a)[Y(2-aminoethoxy)][2-Nal][{d}L]E(1c)Y-[NH2]] ([3Amb]SCWQC[AEF][2Nal][dL]EY-NH2; linker 3-6 via CH2COCH2; lactam N-10) | 7.32 | 83 | 9 | 0 | 66 |
| CC(C)C[C@]1(C)NC(=O)[C@H](Cc2ccc3ccccc3c2)NC(=O)[C@H](Cc2ccc(OCCN)cc2)NC(=O)[C@@H]2CCCNC(=O)CC[C@H](NC(=O)[C@H](CO)NC(=O)Cc3ccc(cc3)CNC(=O)CC[C@@H](C(=O)N[C@@H](CCN)C(=O)N[C@@H](Cc3cccnc3)C(N)=O)NC1=O)C(=O)N[C@@H](Cc1c[nH]c3ccccc13)C(=O)N[C@@H](CCC(N)=O)C(=O)N2 [Compound 124, [4-Aminomethyl-phenylacetyl](1c)*SE(2c)WQ[Orn](2c)[Y(2-aminoethoxy)][2-Nal][2-Me-Leu]E(1c)[Dab][3-(3-Pyridyl)-Ala]-[NH2]] | 10.97 | – | 35 | 0 | 89 |
| CC(C)C[C@]1(C)NC(=O)[C@H](Cc2ccc3ccccc3c2)NC(=O)[C@H](Cc2ccc(OCCN)cc2)NC(=O)[C@@H]2CSCC(=O)CSC[C@H](NC(=O)[C@H](CO)NC(=O)c3cccc(c3)CNC(=O)CC[C@@H](C(=O)N[C@@H](CO)C(N)=O)NC1=O)C(=O)N[C@@H](Cc1c[nH]c3ccccc13)C(=O)N[C@@H](CCC(N)=O)C(=O)N2 [Compound 44, [(3-Aminomethyl)benzoyl](1c)*SC(2a)WQC(2a)[Y(2-aminoethoxy)][2-Nal][2-Me-Leu]E(1c)S-[NH2]] | 8.31 | – | 79 | – | 73 |
| CC(C)C[C@]1(C)NC(=O)[C@H](Cc2ccc3ccccc3c2)NC(=O)[C@H](Cc2ccc(OCCN)cc2)NC(=O)[C@@H]2CSCC(=O)CSC[C@H](NC(=O)[C@H](CO)NC(=O)c3cccc(c3)CNC(=O)CC[C@@H](C(=O)N[C@@H](CCCNC(=N)N)C(N)=O)NC1=O)C(=O)N[C@@H](Cc1c[nH]c3ccccc13)C(=O)N[C@@H](CCC(N)=O)C(=O)N2 [Compound 38, [(3-Aminomethyl)benzoyl](1c)*SC(2a)WQC(2a)[Y(2-aminoethoxy)][2-Nal][2-Me-Leu]E(1c)R-[NH2]] ([3Amb]SCWQC[AEF][2Nal][αMeL]ER-NH2; linker 3-6 via CH2COCH2; lactam N-10) | 8.59 | – | 29 | 5 | 84 |
| CC[C@H](C)[C@@H]1NC(=O)Cc2ccc(cc2)CNC(=O)CC[C@@H](C(=O)N[C@@H](CCN)C(=O)N[C@@](C)(Cc2cccnc2)C(N)=O)NC(=O)[C@](C)(C(C)C)NC(=O)[C@H](Cc2ccc(C)c(C)c2)NC(=O)[C@H](Cc2ccc(OCCN)cc2)NC(=O)[C@@H]2CCNC(=O)CC[C@H](NC1=O)C(=O)N[C@@H](Cc1c[nH]c3ccccc13)C(=O)N[C@@H](CCC(N)=O)C(=O)N2 [Compound 165, [4-Aminomethyl-phenylacetyl](1c)*IE(2c)WQ[Dab](2c)[Y(2-aminoethoxy)][F(3,4-Me)][2-Me-Val]E(1c)[Dab][2-Me-3-(3-Pyridyl)-Ala]-[NH2]] ([X1]IEWQ[Dab][AEF][Phe(3,4-Me2)][αMeV]E[Dab][αMeAla(3-pyridyl)]-NH2; lactam 3-6, N-10) | – | – | – | 109 | 109 |
| CC(C)C[C@]1(C)NC(=O)[C@H](Cc2ccc3ccccc3c2)NC(=O)[C@H](Cc2ccc(OCCN)cc2)NC(=O)[C@@H]2CSCC(=O)CSC[C@H](NC(=O)[C@H](CO)NC(=O)c3cccc(c3)CNC(=O)CC[C@@H](C(=O)N[C@@H](Cc3ccc(N)cc3)C(N)=O)NC1=O)C(=O)N[C@@H](Cc1c[nH]c3ccccc13)C(=O)N[C@@H](CCC(N)=O)C(=O)N2 [Compound 45, [(3-Aminomethyl)benzoyl](1c)*SC(2a)WQC(2a)[Y(2-aminoethoxy)][2-Nal][2-Me-Leu]E(1c)[F(4-NH2)]-[NH2]] ([3Amb]SCWQC[AEF][2Nal][αMeL]E[Phe(4-NH2)]-NH2; linker 3-6 via CH2COCH2; lactam N-10) | 7.92 | 76 | – | 34 | 84 |
| CC(=O)N[C@@H](CC(=O)O)C(=O)N[C@H]1CCC(=O)NCCCC[C@@H](C(=O)N[C@@H](CCC(=O)O)C(=O)N[C@@H](CC(N)=O)C(=O)NCC(N)=O)NC(=O)[C@](C)(CC(C)C)NC(=O)[C@H](Cc2ccc3ccccc3c2)NC(=O)[C@H](Cc2c[nH]c3ccccc23)NC(=O)[C@@H]2CSCC(=O)CSC[C@H](NC(=O)[C@H](CO)NC1=O)C(=O)N[C@@H](Cc1c[nH]c3ccccc13)C(=O)N[C@@H](CCC(N)=O)C(=O)N2 [Compound 58, [Ac]-DE(1c)SC(2a)WQC(2a)W[2-Nal][2-Me-Leu]K(1c)ENG-[NH2]] (Ac-DESCWQCW[2Nal][αMeL]KENG-NH2; lactam 2-11; linker 4-7 via CH2COCH2) | – | 61 | 80 | 45 | 8 |
| CC(=O)N[C@H]1CCSC[C@@H](C(=O)N[C@@H](Cc2ccc(OCCN)cc2)C(=O)N[C@@H](Cc2c[nH]c3ccccc23)C(=O)N[C@@](C)(CCCCN)C(=O)N[C@@H](CCC(=O)O)C(=O)N[C@@H](CC(N)=O)C(=O)NCC(N)=O)NC(=O)[C@H](CCC(N)=O)NC(=O)[C@H](Cc2c[nH]c3ccccc23)NC(=O)[C@H]([C@@H](C)O)NC(=O)[C@H](CCC(N)=O)NC1=O [Compound C, [Ac]-[Abu](16i)QTWQC(16i)[Y(2-aminoethoxy)]W[2-Me-Lys]ENG-[NH2], reference compound] | – | 100 | 92 | 76 | – |

From US20250154198A1, “PEPTIDE INHIBITORS OF INTERLEUKIN-23 RECEPTOR” (Zealand Pharma A/S, priority 2021, published 2025)
